From patent US20200087340A1, “LIF/LIFR ANTAGONIST IN ONCOLOGY AND NONMALIGNANT DISEASES” (Evestra, Inc., priority 2018, published 2020)

Assays:
HL-60(TB) = experiment: NCI-60 screening, Leukemia; type: cell-based, human
MOLT-4 = experiment: NCI-60 screening, Leukemia; type: cell-based, human
A549/ATCC = experiment: NCI-60 screening, Non-Small Cell Lung Cancer; type: cell-based, human
EKVX = experiment: NCI-60 screening, Non-Small Cell Lung Cancer; type: cell-based, human
HOP-62 = experiment: NCI-60 screening, Non-Small Cell Lung Cancer; type: cell-based, human
HOP-92 = experiment: NCI-60 screening, Non-Small Cell Lung Cancer; type: cell-based, human
NCI-H226 = experiment: NCI-60 screening, Non-Small Cell Lung Cancer; type: cell-based, human
NCI-H23 = experiment: NCI-60 screening, Non-Small Cell Lung Cancer; type: cell-based, human
COLO 205 = experiment: NCI-60 screening, Colon Cancer; type: cell-based, human
HCT-116 = experiment: NCI-60 screening, Colon Cancer; type: cell-based, human
HCT-15 = experiment: NCI-60 screening, Colon Cancer; type: cell-based, human
HT29 = experiment: NCI-60 screening, Colon Cancer; type: cell-based, human
SW-620 = experiment: NCI-60 screening, Colon Cancer; type: cell-based, human
SF-295 = experiment: NCI-60 screening, CNS Cancer; type: cell-based, human
LOX IMVI = experiment: NCI-60 screening, Melanoma; type: cell-based, human
MDA-MB-435 = experiment: NCI-60 screening, Melanoma; type: cell-based, human
SK-MEL-28 = experiment: NCI-60 screening, Melanoma; type: cell-based, human
UACC-257 = experiment: NCI-60 screening, Melanoma; type: cell-based, human
OVCAR-4 = experiment: NCI-60 screening, Ovarian Cancer; type: cell-based, human
OVCAR-5 = experiment: NCI-60 screening, Ovarian Cancer; type: cell-based, human
OVCAR-8 = experiment: NCI-60 screening, Ovarian Cancer; type: cell-based, human
NCI/ADR-RES = experiment: NCI-60 screening, Ovarian Cancer; type: cell-based, human
PC-3 = experiment: NCI-60 screening, Prostate Cancer; type: cell-based, human
786-0 = experiment: NCI-60 screening, Renal Cancer; type: cell-based, human
A498 = experiment: NCI-60 screening, Renal Cancer; type: cell-based, human
RXF 393 = experiment: NCI-60 screening, Renal Cancer; type: cell-based, human
TK-10 = experiment: NCI-60 screening, Renal Cancer; type: cell-based, human
MCF7 = experiment: NCI-60 screening, Breast Cancer; type: cell-based, human
BT-549 = experiment: NCI-60 screening, Breast Cancer; type: cell-based, human
T-47D = experiment: NCI-60 screening, Breast Cancer; type: cell-based, human
[1] = test system: Patient derived tumor (melanoma); experiment: Immunohistochemistry analysis of treated patient derived tumor; type: cell-based, human; conditions: 10 nM and 1 uM for 5 days
Protocol: Patient derived tumor (melanoma) was treated with the compounds at 10 nM and 1 uM for 5 days in RPMI medium and harvested on day 6 using established protocol and immunohistochemistry was performed for different antibodies including p53, LIF, MDM2, pSTAT3, Ki67.

[2] = test system: IGROV1 (Ovarian) Xenograft; experiment: Tumor xenograft study, IGROV1; type: in vivo, mice
Protocol: Uniform suspensions of human breast cancer MDA-MB-231 and human ovarian cancer IGROV1 cells (2×10^6) in 100 μL (0.02 carboxymethyl cellulose in phosphate buffered saline) were injected subcutaneously into the right and left flanks of 4- to 5-week-old female athymic nude mice (Charles River Laboratories). After 10 days, when the tumor […] reaches 100 mm^3, the mice were randomly allocated to 3 groups of each containing 6 animals. […] All drug was suspended in PBS followed by sonication (15 seconds with an intermittent interval of 5 seconds) for 1 minute. Tumors were allowed to reach palpability before drug intervention. Tumor size was measured every 3 days using digital Vernier Calipers and tumor volume was calculated using the ellipsoid formula [D×(d2)]/2, where D is the large diameter of the tumor and d represents the small diameter. On day 31, the mice were euthanized and tumors were harvested for protein and gene expression studies. […] FIG. 6B depicts a graph of tumor volume vs. time for the administration of EC300 at 2.5 mg/kg twice weekly in the MDA-MB-231 (TNBC) Xenograft. […] FIG. 7 depicts a graph of tumor volume vs. time for the administration of EC300 at 5 mg/kg 5 days per week in the IGROV1 (Ovarian) Xenograft. […] STAT3 phosphorylation is reduced in tumors that underwent treatment compared to control which is an indication of LIF downstream target.

MCF-7 cells = experiment: P53 / MDM2 levels in MCF-7 cells; type: cell-based, human
SMAD = experiment: Phosphorylation of SMAD; type: cell-based; conditions: thorough blocking TGF-beta

In the case of `C#CC(F)(F)[C@]1(O)CCC2C3CCC4=CC(=O)CCC4=C3C(c3ccc(C4CC4)cc3)C[C@@]21C` (stereo partly drawn) [EC330, 17α-(1,1-difluoro-2-propyn-1-yl)-17β-hydroxy-11β-[4-p-(cyclopropyl)phenyl]estra-4,9-dien-3-one], the “TGI (log10TGI)” value (HL-60(TB)) is reported as less than −8.00, the “TGI (log10TGI)” value (MOLT-4) is reported as −5.30 and the “TGI (log10TGI)” value (A549/ATCC) is reported as −4.61. For the same compound, the “TGI (log10TGI)” value (EKVX) was less than −8.00, the “TGI (log10TGI)” value (HOP-62) was −6.79 and the “TGI (log10TGI)” value (HOP-92) was less than −8.00. The “TGI (log10TGI)” value (NCI-H226) was −5.04, the “TGI (log10TGI)” value (NCI-H23) was less than −8.00 and the “TGI (log10TGI)” value (COLO 205) was −5.53. For the same compound, the “TGI (log10TGI)” value (HCT-116) was −4.55, the “TGI (log10TGI)” value (HCT-15) was greater than −4.00 and the “TGI (log10TGI)” value (HT29) was −6.72. For the same compound, the “TGI (log10TGI)” value (SW-620) was −4.79, the “TGI (log10TGI)” value (SF-295) was less than −8.00 and the “TGI (log10TGI)” value (LOX IMVI) was less than −8.00. For the same compound, the “TGI (log10TGI)” value (MDA-MB-435) was −5.03, the “TGI (log10TGI)” value (SK-MEL-28) was −5.43 and the “TGI (log10TGI)” value (UACC-257) was greater than −4.00. The “TGI (log10TGI)” value (OVCAR-4) was greater than −4.00, the “TGI (log10TGI)” value (OVCAR-5) was −5.25 and the “TGI (log10TGI)” value (OVCAR-8) was −4.43. The “TGI (log10TGI)” value (NCI/ADR-RES) was −5.41, the “TGI (log10TGI)” value (PC-3) was −5.53 and the “TGI (log10TGI)” value (786-0) was less than −8.00. The “TGI (log10TGI)” value (A498) was −6.01, the “TGI (log10TGI)” value (RXF 393) was −5.09 and the “TGI (log10TGI)” value (TK-10) was −4.91. For the same compound, the “TGI (log10TGI)” value (MCF7) was −4.96, the “TGI (log10TGI)” value (BT-549) was −5.30 and the “TGI (log10TGI)” value (T-47D) was −5.00. The “apoptosis, p53, MDM2, LIF mediated STAT3 phosphorylation (immunohistochemistry)” value [1] was “induce apoptosis and restore p53 by inhibiting MDM2 and LIF mediated STAT3 phosphorylation”, the antitumor activity ([2]; 5 mg/kg (5 days per week), 4 weeks, IGROV1 xenograft) was “potent antitumor activity” and the “apoptosis in xenograft tumors” value ([2]; IGR-OV1 ovarian cancer xenograft tumors) was “induced apoptosis dose dependently”. The tumor growth ([2]; ovarian cancer model) was “significantly reduced”, the “STAT3 phosphorylation in tumors” value ([2]; treated compared to control) was “reduced” and the “P53 levels / MDM2” value (MCF-7 cells) was “restore P53 levels by inhibiting MDM2”. For the same compound, the “phosphorylation of SMAD” value (SMAD) was “indirectly diminish the phosphorylation of SMAD”.
